{"source": "paper PMC7806714", "about": "“Statins for the prevention of proliferative vitreoretinopathy: cellular responses in cultured cells and clinical statin concentrations in the vitreous” (Scientific Reports, 2021)", "key": {"ARPE-19 cells": {"tested_on": "ARPE-19 cells", "experiment": "LDH release assay (cell membrane integrity)", "assay_type": "cell-based, human", "protocol": "Cell viability was assessed by determining the amount of LDH enzyme from culture media using a commercial kit (Promega Corporation, USA) according to the manufacturer’s protocol. This assay provides information about the integrity of the plasma membranes of the cells (high LDH levels meaning cell damage). In addition, the cell viability was examined with MTT assay, as described previously. In viable cells, the mitochondrial succinate dehydrogenase enzyme can metabolize the MTT dye into formazan that absorbs light at the 550 nm wavelength."}, "[1]": {"settings": "free fraction of drug in plasma; ref summary of product characteristics document; cited from earlier work"}}}
{"smiles": "CC(C)c1nc(N(C)S(C)(=O)=O)nc(-c2ccc(F)cc2)c1/C=C/[C@@H](O)C[C@@H](O)CC(=O)O", "note": "[Rosuvastatin]", "values": [{"measurement": "LDH levels / cell membrane integrity", "setting": "ARPE-19 cells; 24 h exposure, with LPS, dissolved in DMSO", "value": "more damage to the cell membrane"}, {"measurement": "LDH levels / cell membrane integrity", "setting": "ARPE-19 cells; 24 h exposure, without LPS, dissolved in DMSO", "value": "protected the integrity of the cell membrane"}, {"measurement": "LDH levels / cell membrane integrity", "setting": "ARPE-19 cells; 48 h exposure, with LPS, dissolved in DMSO", "value": "protect cells from LPS-induced cell membrane rupturing"}, {"measurement": "LDH levels / cell membrane integrity", "setting": "ARPE-19 cells; 48 h exposure, dissolved in DMSO", "value": "acute toxic effects on the cell membrane"}, {"measurement": "LDH levels / cell membrane integrity", "setting": "ARPE-19 cells; dissolved in water, 48 h, with LPS", "value": "interfered with the cell membrane integrity"}, {"measurement": "LDH levels", "setting": "ARPE-19 cells; dissolved in water, within 24 h, irrespective of LPS", "value": "did not cause any changes in the LDH levels"}, {"measurement": "fu", "setting": "[1]", "value": 0.12}]}
